One experiment deals with T1, PDK1 (Homo sapiens, UniProt O15530).
T1 sequence (O15530 1-556): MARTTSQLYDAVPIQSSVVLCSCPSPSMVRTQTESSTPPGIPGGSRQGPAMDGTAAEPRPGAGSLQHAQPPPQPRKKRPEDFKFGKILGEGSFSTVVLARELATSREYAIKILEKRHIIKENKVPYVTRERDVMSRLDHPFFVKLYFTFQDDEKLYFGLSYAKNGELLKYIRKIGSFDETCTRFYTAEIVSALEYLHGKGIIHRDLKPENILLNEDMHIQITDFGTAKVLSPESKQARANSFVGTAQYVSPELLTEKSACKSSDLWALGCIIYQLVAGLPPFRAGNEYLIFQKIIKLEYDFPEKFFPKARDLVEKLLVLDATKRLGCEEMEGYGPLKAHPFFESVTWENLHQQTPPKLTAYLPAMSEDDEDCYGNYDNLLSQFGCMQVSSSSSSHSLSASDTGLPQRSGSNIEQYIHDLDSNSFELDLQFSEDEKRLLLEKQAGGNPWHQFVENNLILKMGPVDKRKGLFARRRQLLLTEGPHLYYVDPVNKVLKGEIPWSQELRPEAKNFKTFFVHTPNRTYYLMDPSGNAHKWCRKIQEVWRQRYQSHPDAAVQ
The experiment is described as follows: Nanosyn in vitro kinase profiling: PDK1. It counts as biochemical. The conditions noted are these: for inhibition at 1 µM: compound at 1 μM. As to the method:
(§1) This was confirmed by in vitro profiling against a panel of kinases, with compound 2 only showing potent inhibition of EGFR and Ab1 (Table 2).
(§2) In vitro Kinome Screen. In vitro profiling of compound 2 at 100 nM was conducted by Nanosyn.

Another experiment addresses T2, IKK-BETA (Homo sapiens, UniProt O14920).
T2 sequence (O14920 1-756): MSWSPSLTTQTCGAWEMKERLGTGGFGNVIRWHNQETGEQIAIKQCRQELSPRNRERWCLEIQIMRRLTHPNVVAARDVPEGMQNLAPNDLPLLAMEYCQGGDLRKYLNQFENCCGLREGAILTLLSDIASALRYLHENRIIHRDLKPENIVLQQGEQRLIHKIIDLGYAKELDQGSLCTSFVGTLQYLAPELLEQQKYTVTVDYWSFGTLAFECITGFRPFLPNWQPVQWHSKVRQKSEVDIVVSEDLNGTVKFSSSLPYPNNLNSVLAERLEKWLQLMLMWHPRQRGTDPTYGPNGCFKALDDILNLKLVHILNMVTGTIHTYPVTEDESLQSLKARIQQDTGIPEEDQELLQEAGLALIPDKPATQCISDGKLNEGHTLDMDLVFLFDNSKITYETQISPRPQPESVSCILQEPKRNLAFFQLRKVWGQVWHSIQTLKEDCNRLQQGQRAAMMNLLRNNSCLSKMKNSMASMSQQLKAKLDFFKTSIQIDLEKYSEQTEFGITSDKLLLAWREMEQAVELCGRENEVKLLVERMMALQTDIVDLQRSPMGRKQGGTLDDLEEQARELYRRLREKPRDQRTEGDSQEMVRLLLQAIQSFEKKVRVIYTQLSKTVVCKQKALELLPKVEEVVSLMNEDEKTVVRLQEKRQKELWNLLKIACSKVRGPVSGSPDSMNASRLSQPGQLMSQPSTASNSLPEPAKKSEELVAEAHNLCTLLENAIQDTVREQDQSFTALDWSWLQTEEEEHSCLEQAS
The experiment is described as follows: Nanosyn in vitro kinase profiling: IKK-BETA. It counts as biochemical. Conditions: for inhibition at 1 µM: compound at 1 μM. As to the method:
as §1, §2

For another experiment, the target named is AMP-A1B1G1 (Homo sapiens, UniProt Q13131). The experiment is described as follows: Nanosyn in vitro kinase profiling: AMP-A1B1G1. It counts as biochemical. The conditions noted are these: for inhibition at 1 µM: compound at 1 μM. As to the method:
as §1, §2

A further experiment addresses JNK2 (Homo sapiens, UniProt P45984). Kind of experiment: Nanosyn in vitro kinase profiling: JNK2. It counts as biochemical. Conditions: for inhibition at 1 µM: compound at 1 μM. As to the method: as §1, §2
Experiment [1] deals with HER2 and HER3 signaling in NCI-H1781 cells. Kind of experiment: HER2 and HER3 signaling in NCI-H1781 cells (immunoblot). The conditions noted are these: NCI-H1781 cells (HER2 kinase domain insertion); 15 min after drug. Format: cell-based. As to the method:
Immunoblotting. Cells were grown in 6 well plates and treated according to the indicated conditions at which point the media was aspirated, cells were washed with 1 mL of cold PBS, which was then aspirated and the plates were frozen at −80° C. The frozen cells were thawed on the plates in a buffer containing 50 mM Tris pH 7.5, 150 mM NaCl, 1 mM EDTA, and 1% Triton X-100 supplemented with 1× phosphatase (PhoSTOP, Roche) and 1× protease (complete-mini tablets, Roche) inhibitors. Lysates were scraped, transferred to Eppendorf tubes, and cleared by centrifugation at 20,000×g for 20 min at 4° C. The clarified lysates were transferred to chilled, clean tubes, and normalized for protein concentration by Bradford (Bio-Rad). The normalized lysates were diluted with Laemmli loading buffer, and 10 μg of total protein was run on a 4-12% gradient gel (Invitrogen), which was then transferred to […] nitrocellulose (Bio-Rad) and analyzed using the indicated primary antibodies according to the manufacturer's recommendations. Primary antibodies were detected using IRDye secondary antibodies (Li-Cor) according to the manufacturer's recommendations and scanned on an Odyssey imager (Li-Cor). Scanned images were cropped and assembled in Adobe Illustrator 6.
A general note: A western blot detects proteins with antibodies after separation by electrophoresis.

Experiment [2] addresses T3, 2YF-YVMA/3wt + NRG Ba/F3 cells (Homo sapiens, UniProt P04626, DUP772-775/Y1005F/Y1023F/Y1112F/Y1127F/Y1139F/Y1196F/Y1221F/Y1222F/Y1248F, cells depend on it).
T3 construct: reported HER2 oncogenic mutants in the HER2YF construct
The experiment is described as follows: Ba/F3 proliferation assay, 2YF-YVMA/3wt + NRG. Format: cell-based. As to the method: For the 2YF/3wt cells, the parental cells were first transduced with HER3 according to the protocol above and were then spun down at 500×g for 5 min and re-suspended in media supplemented with 10 ng/mL IL-3 and 3 μg/mL puromycin (Invitrogen). Cells were maintained in these conditions for seven days, passaging as required. After seven days the cells were spun down, washed with fresh media, and then used for a subsequent round of transduction according to the protocol above with HER2YF virus. […] The cells were maintained in these conditions for seven days, passaging as required. After seven days the cells were spun down, washed with fresh media, and then suspended in media supplemented with 10 ng/mL of NRG. Cells were maintained in these conditions for seven days to select for a NRG dependent population of 2YF/3wt Ba/F3 cells that were then maintained as described above. The same protocol was used for the 2YF-L755S/3wt, 2YF-YVMA/3wt, and 2YF-VC/3wt cell lines using the indicated constructs.
Proliferation Assays. […] The following day media was changed to fresh media that contained either DMSO or the indicated concentration of drug plus NRG (50 ng/mL final concentration) as indicated. […] For all normalized assays, proliferation was normalized to the DMSO control condition. […]

SMILES strings stand for the structures. Where two headings read alike, the source gives them in different places.

Sequence of JNK2 (P45984 whole entry, species assumed, the tested form may be a part): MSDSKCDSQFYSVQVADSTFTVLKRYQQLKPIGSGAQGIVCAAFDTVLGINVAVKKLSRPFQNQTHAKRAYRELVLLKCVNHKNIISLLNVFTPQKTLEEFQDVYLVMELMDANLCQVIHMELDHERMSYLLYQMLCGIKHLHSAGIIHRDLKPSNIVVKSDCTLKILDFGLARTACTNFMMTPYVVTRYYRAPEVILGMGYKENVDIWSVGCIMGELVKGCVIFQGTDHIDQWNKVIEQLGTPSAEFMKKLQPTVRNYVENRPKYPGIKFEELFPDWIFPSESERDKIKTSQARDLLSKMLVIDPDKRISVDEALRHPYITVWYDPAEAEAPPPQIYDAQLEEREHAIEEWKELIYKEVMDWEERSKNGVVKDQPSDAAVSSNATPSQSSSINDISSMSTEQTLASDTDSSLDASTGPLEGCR
Sequence of AMP-A1B1G1 (Q13131 whole entry): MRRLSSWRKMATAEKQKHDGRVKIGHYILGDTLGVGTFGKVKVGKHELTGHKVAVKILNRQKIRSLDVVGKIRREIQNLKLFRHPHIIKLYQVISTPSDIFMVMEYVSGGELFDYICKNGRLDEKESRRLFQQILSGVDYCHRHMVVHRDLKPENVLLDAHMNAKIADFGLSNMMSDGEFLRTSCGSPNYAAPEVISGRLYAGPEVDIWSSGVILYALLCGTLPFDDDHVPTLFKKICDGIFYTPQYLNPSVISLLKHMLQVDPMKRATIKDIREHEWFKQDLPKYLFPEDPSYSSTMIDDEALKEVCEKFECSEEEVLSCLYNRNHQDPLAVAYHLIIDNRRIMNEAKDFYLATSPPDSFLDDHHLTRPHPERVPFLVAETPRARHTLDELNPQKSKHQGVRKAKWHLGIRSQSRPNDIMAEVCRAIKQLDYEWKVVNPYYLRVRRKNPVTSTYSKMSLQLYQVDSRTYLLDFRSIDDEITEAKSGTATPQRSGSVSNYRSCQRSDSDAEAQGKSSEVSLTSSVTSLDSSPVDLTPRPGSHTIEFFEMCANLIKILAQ
Sequence of AMP-A1B1G1 (Q9Y478 whole entry partner): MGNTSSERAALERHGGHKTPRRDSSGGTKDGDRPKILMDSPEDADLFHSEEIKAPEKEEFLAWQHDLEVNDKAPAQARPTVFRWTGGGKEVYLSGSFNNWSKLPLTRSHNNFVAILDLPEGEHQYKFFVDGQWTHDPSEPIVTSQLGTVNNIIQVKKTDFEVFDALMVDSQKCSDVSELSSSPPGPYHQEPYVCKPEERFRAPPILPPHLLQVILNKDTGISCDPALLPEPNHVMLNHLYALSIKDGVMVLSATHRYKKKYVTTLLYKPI
Sequence of AMP-A1B1G1 (P54619 whole entry partner): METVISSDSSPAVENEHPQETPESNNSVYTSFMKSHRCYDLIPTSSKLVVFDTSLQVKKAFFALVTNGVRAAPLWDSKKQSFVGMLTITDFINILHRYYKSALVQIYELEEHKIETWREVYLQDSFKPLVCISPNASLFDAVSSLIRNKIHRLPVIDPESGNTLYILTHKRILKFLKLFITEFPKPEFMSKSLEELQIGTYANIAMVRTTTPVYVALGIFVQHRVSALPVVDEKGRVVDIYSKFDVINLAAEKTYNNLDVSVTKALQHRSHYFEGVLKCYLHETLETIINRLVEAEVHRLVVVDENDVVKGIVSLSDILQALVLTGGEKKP
T3 sequence (P04626 with tags, fused parts or gaps with the stated changes): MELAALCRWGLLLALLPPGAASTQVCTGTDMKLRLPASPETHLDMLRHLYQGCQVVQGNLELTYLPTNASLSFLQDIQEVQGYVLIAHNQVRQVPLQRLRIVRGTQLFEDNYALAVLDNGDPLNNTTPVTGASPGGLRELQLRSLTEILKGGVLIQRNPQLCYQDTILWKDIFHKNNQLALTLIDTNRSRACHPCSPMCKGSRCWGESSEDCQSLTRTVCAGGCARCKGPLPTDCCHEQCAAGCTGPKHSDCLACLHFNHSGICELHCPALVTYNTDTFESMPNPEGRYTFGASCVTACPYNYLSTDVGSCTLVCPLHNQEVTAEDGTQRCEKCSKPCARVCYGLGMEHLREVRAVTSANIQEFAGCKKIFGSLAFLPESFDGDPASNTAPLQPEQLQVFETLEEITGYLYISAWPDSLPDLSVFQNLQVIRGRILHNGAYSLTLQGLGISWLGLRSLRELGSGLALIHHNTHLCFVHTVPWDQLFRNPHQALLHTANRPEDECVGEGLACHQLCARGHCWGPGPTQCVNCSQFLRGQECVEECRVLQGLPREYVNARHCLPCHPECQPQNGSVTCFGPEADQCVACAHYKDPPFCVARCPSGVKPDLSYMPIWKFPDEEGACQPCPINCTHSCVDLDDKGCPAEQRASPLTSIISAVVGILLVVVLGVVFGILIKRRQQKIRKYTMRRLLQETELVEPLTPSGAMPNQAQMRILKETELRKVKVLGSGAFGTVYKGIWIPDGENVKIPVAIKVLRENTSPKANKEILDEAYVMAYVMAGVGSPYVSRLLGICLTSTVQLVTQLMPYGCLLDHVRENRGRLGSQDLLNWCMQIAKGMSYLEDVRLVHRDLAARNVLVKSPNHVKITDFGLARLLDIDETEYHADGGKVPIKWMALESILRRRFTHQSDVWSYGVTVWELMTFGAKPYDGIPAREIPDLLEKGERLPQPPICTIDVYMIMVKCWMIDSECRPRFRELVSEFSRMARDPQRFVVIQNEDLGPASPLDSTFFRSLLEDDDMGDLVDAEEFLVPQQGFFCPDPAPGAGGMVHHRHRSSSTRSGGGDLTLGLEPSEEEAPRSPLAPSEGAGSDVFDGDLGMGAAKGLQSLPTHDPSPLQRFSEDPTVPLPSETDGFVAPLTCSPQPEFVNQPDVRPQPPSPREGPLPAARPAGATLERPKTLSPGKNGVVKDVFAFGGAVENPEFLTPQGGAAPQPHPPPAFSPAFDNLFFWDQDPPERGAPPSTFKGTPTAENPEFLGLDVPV

In general, inhibition refers to the relative decrease from the control value, in per cent. Lower therefore signals a weak effect. Turning to `COc1ccc(-c2ccco2)cc1Nc1ncnc2[nH]nc(-c3ccco3)c12` [compound 2, 3-(furan-2-yl)-N-(5-(furan-2-yl)-2-methoxyphenyl)-1H-pyrazolo[3,4-d]pyrimidin-4-amine], the inhibition at 0.1 µM at PDK1 (compound at 100 nM) is 4.58%; at IKK-BETA (compound at 100 nM), 1.92%; against AMP-A1B1G1 (compound at 100 nM) it was 2.69%; against JNK2 (compound at 100 nM), 1.07%. Besides, the inhibition at 1 µM at PDK1 came to 18.3%; against IKK-BETA, 2.91%; against AMP-A1B1G1, 12.9%; against JNK2 it was 6.62%.
Regarding `COc1ccc(-c2ccoc2)cc1Nc1ncnc2[nH]cc(-c3cc[nH]n3)c12` [compound 3, N-(5-(furan-3-yl)-2-methoxyphenyl)-5-(1H-pyrazol-3-yl)-7H-pyrrolo[2,3-d]pyrimidin-4-amine], the inhibition at 1 µM against PDK1 was 5%; against IKK-BETA, 8%; against AMP-A1B1G1, 20%; on JNK2, 7%. In addition, in experiment [1], the “inhibition of HER2/HER3 signaling” value was “rapidly and fully inhibited”. Besides, the GI50 in experiment [2] (Table 4; ± S.D., n = 2; read-out: IC50, 2YF-YVMA/3wt + NRG) amounted to 11.4 ± 0.1 nM.
`CS(=O)(=O)CCNCc1ccc(-c2ccc3ncnc(Nc4ccc(OCc5cccc(F)c5)c(Cl)c4)c3c2)o1` [lapatinib]: in experiment [1], the “inhibition of HER2/HER3 signaling” value was “unable to fully inhibit signaling”. Moreover, in experiment [2] (read-out: IC50, 2YF-YVMA/3wt + NRG; Table 4; ± S.D., n = 2), the GI50 is over 10000 nM.

(Values after US20190119284A1, “ErbB Inhibitors and Uses Thereof” (The Regents of the University of California, priority 2016, published 2019).)
